# Results reported in publication PMC8761492 (Life Science Alliance, 2022).
# Where two headings read alike, the source gives them in different places. Starred links: 1 amine or outer side, 2 acyl side, 3 side chain; linkers in the order of their positions; H or OH if unused. Positions of bridges follow the written chain, without caps; N, C: chain ends. Non-standard residues stand in square brackets, D forms with d. Residues, ends and D or L forms follow the SMILES beside them. *: point of attachment. X1 = CC[C@H](C)[C@@H](N[*:1])[C@@H](O)CC(=O)O[C@H](C(=O)[C@H](C)C(=O)[*:2])C(C)C; NMeY = CN[C@@H](Cc1ccc(O)cc1)C(=O)O; dNMeL = CN[C@H](CC(C)C)C(=O)O; Pyruvoyl = CC(=O)C(=O)*
# Tests used:
# [1] = test system: SARS-CoV-2 (βCoV/KOR/KCDC03/2020); assay: microbe, parasite or virus in culture; assay type: cell-based; conditions: Severe acute respiratory syndrome coronavirus 2, Vero
# [2] = human, cited from earlier work
# COVID-19 = assay: APLICOV-PC: post hoc analysis of hospital discharge; assay type: in vivo, human
# Experimental: Post hoc analyses were conducted to (1) assess disease severity at baseline (mild, moderate, severe COVID-19 by FDA criteria) ([23]) and (2) assess covariates associated with efficacy end points, including hospital discharge by Day 15 or Day 8.
# The Kaplan–Meier method was used for the description of time to event end points and the median and the 95% confidence intervals were provided.
# [3] = Plasma protein binding by equilibrium dialysis, rat plasma; assay type: in vitro ADME; conditions: male, CD, independent of drug concentration
# Experimental: The binding of plitidepsin to plasma proteins was determined in vitro at three concentrations (100, 250 and 500 ng/ml) in male rat, dog and human plasma ([53]).
# Rat (CD), beagle dog, and human blood was collected at Aptuit Srl from at least three male donors, and plasma prepared by centrifuging blood at 2,000g, 4°C for 10 min. Human plasma was obtained from healthy and fasted male volunteers. Na-heparin was used as the anti-coagulant for all species. All plasma was stored at approximately −20°C and thawed only once, on the day of the experiment.
# Plasma protein binding was assessed using Rapid Equilibrium Dialysis plates pre-loaded with equilibrium dialysis membrane inserts (MWCO ∼8 kD).
# Separation of free compound from protein-bound material was achieved by dialysis of the sample through the membrane under appropriate shaking at 37°C. The suitability of equilibrium dialysis as a method for protein binding determination of plitidepsin was assessed.
# Before experimentation, the time required to reach equilibrium was determined in male rat and human plasma at one concentration (250 ng/ml) and six selected time points (2, 3, 4, 5, 6, and 7 h) at 37°C. […]
smiles,measurement,setting,value
CC[C@H](C)[C@H]1NC(=O)[C@@H](NC(=O)[C@@H](CC(C)C)N(C)C(=O)[C@@H]2CCCN2C(=O)C(C)=O)[C@@H](C)OC(=O)[C@H](Cc2ccc(OC)cc2)N(C)C(=O)[C@@H]2CCCN2C(=O)[C@H](CC(C)C)NC(=O)[C@@H](C)C(=O)[C@H](C(C)C)OC(=O)C[C@@H]1O [Plitidepsin] (Pyruvoyl-P[dNMeL]T[X1]LP[NMeY](Me); ester 3-C),IC50,[1]; Boryung Pharmaceuticals,3.26 nM
same,IC90,[1]; estimated from IC50 and Hill slope,9.38 nM
same,half-life,"[2]; plasma concentrations, non-compartmental analysis, ref study APL-B-015-14",48.1 h
same,half-life,"[2]; whole blood concentrations, ref pharmacokinetic population analysis",161 h
same,discharge rate at Day 15,COVID-19; 1.5 mg/day,78.6%
same,patients achieving hospital discharge by Day 8,COVID-19; 1.5 mg/day,42.9%
same,discharge rate at Day 15,COVID-19; 2 mg/day,93.3%
same,patients achieving hospital discharge by Day 8,COVID-19; 2 mg/day,60%
same,discharge rate at Day 15,COVID-19; 2.5 mg/day,73.3%
same,patients achieving hospital discharge by Day 8,COVID-19; 2.5 mg/day,66.7%
same,median time to discharge,COVID-19; mild COVID-19 at baseline,7 days
same,discharge rate by Day 8,"COVID-19; mild disease, 4 of 6",66.7%
same,discharge rate by Day 15,"COVID-19; mild disease, 6 of 6",100%
same,median time to discharge,COVID-19; moderate COVID-19 at baseline,7 days
same,patients discharged beyond day 8,"COVID-19; moderate disease at baseline, 1.5 mg/day, three of eight",38%
same,patients discharged beyond day 8,"COVID-19; moderate disease at baseline, 2.0 mg/day, three of seven",43%
same,patients discharged by day 8,"COVID-19; moderate disease at baseline, 2.5 mg/day",8 of 8
same,discharge rate by Day 8,"COVID-19; moderate disease, 17 of 23",73.9%
same,discharge rate by Day 15,"COVID-19; moderate disease, 22 of 23",95.7%
same,discharge rate by day 8,"COVID-19; overall, 25 of 44",56.8%
same,discharge rate by day 15,"COVID-19; overall, 36 of 44",81.8%
same,median time to discharge,COVID-19; severe COVID-19 at baseline,14 days
same,discharge rate by Day 8,"COVID-19; severe disease, 4 of 15",27%
same,discharge rate by Day 15,"COVID-19; severe disease, 8 of 15",53.3%
same,fraction unbound,[3],0.04
